Patent publication US20040022788A1, “Compositions and methods for promoting or inhibiting angiogenesis” (priority 1998, published 2004)
pKd: −log10 of the molar value. Entries after “also recorded” stand apart in the source; their conditions may differ.

Key:
HUVEC [1] = test: Direct binding of 125I-labeled plasminogen or angiostatin to endothelial cells, Scatchard analysis; set-up: species or system human; conditions: 125I-labeled ligand, 1 h at 4° C., read-out: apparent dissociation constant (Kd)
Description: FIGS. 1A and 1B. Direct binding assay and Scatchard analysis of plasminogen and angiostatin with endothelial cells. HUVEC were plated at a density of 10,000 cells/well and incubated with increasing concentrations of ^125I-labeled-plasminogen or angiostatin. FIG. 1A. ^125I-labeled plasminogen binding was concentration-dependent and saturable with an apparent dissociation constant ([…]) of 158 nM and 870,000 sites/cell. FIG. 1B. […] Error bars represent standard deviation.
(§1) Binding Assays. Ligands were radioiodinated by using Iodobeads (Pierce), repurified on L-lysine-Sepharose, eluted with 100 mM ε-aminocaproic acid, and dialyzed in PBS, pH 7.0 before use in binding assays. HUVEC were plated at a density of 5,000 or 10,000 cells/well and incubated with increasing concentrations of ^125I-labeled ligand in media containing 1% BSA for 1 h at 4° C. in 96-well plates. Wells were washed, and remaining bound radioactivity was quantified by using an LKB 1272 γ-radiation counter. Nonspecific binding was measured in the presence of excess unlabeled ligand.

[2] = biological target: T1, purified bovine F1 ATP synthase (Bos taurus, UniProt P00829+P19483); test: ELISA binding of angiostatin to purified F1 ATP synthase; conditions: double-reciprocal plots; 1 μg F1 ATP synthase per well; read-out: apparent dissociation constant Kd(app)
T1 construct: from tissue; host or cells: bovine heart mitochondria
Description: FIG. 11 is a bar graph showing the binding of angiostatin to purified bovine F1 ATP synthase. ELISA was used to determine concentration-dependent binding of angiostatin to a constant amount of F1 ATP synthase. Each well was coated with 1 μg of F1 ATP synthase prior to addition of […] amounts of angiostatin.
ELISA Binding Studies. Binding studies were performed with purified F1 subunit of bovine ATP synthase ([…]) passively adsorbed onto polyvinylchloride microtiter 96-well flat bottom plates (Dynex Technologies, Inc, Chantilly, Va.) as previously described (22). Briefly, plates were coated with protein in 50 μl of 0.1M Na2CO3, pH9.6 and incubated 2 h at 37° C. Non-specific sites were blocked by incubating with PBS, pH 7.0 containing 1% BSA for 30 min at rt. Binding studies were performed with increasing amounts of angiostatin (0-0.5 mg/ml) added in a […] for 1 h at 37° C. Plates were washed (0.1% Tween20/PBS, pH 7.0) and incubated with anti-human angiostatin antibody (goat IgG) (R&D Systems, Minneapolis, Minn.) (1:200 dil) overnight at 4° C. […] Plates were washed and 150 μl of OPD substrate was added to each well and the reaction stopped with 25 μl of H2SO4 (25%), before monitoring the absorbance at λ=492 nm in a Molecular Devices SpectraMax Plus-384 plate reader. […]

HUVEC [3] = test: HUVEC cell proliferation assay (CyQUANT); format: cell-based, human; conditions: 1 μM; 24 hrs; n = 3
Description: Cell Proliferation Assay. HUVEC were plated at a density of 5000 cells/well in media depleted of fetal calf serum (FCS) overnight to allow the cells to become quiescent. Fresh media containing 5% FCS, 10 ng/ml basic fibroblast growth factor (bFGF) and 3 ng/ml vascular endothelial growth factor (VEGF) were added to the wells along with angiostatin (1.0 μM), antibody directed against the recombinant human alpha-subunit of ATP synthase (1:10 dil), antibody directed against the recombinant human beta-subunit of ATP synthase (1:10 dil), pre-immune serum (1:10 dil) or cycloheximide ([…]). Cell density was measured after 24 hrs using CyQUANT Cell Proliferation Assay Kit (Molecular Probes) in a fluorometric plate reader (Molecular Devices). The absorbance values used to calculate the percent proliferation of the cells ranged from 1.24 or 1.00 for treated and 2.57 for untreated.

[4] = test system: plasminogen binding sites on HUVEC; test: Competition binding assay, 125I-labeled plasminogen on HUVEC; set-up: species or system human; conditions: 1.0 μM 125I-labeled plasminogen; 100-fold molar excess of unlabeled angiostatin
Description: FIG. 2. Competition binding assay between plasminogen and angiostatin. HUVEC were plated at a density of 10,000 cells/well and incubated with 1.0 μM ^125I-labeled plasminogen in the presence of 100-fold molar excess of unlabeled angiostatin for 1 h at 4° C. Cells were washed and the remaining radioactivity was quantified by γ-counting.
as §1

[5] = biological target: T2, recombinant alpha subunit of human ATP synthase (Homo sapiens, UniProt P25705); test: Ligand blot binding to the recombinant alpha subunit of ATP synthase; conditions: ligand blot
T2 construct: His tag; made in house; host or cells: E. coli BL21DE3
Description: FIGS. 7A-7E. Angiostatin binding to the recombinant alpha subunit of human ATP synthase. The alpha subunit of human ATP synthase was cloned and expressed in E. coli and purified using Qiagen's nickel-Sepharose protein purification system before dialyzing in phosphate buffered saline (PBS), pH 7.0. Recombinant protein was electrophoresed on 5-15% SDS-PAGE, electroblotted onto Immobilon™ membrane and incubated 18 h in 10 mM Tris-HCl, 0.15M NaCl, 0.05% NP40, pH 7.5 (TSN) containing ^125I-angiostatin. For competition studies, unlabeled ligand was added 4 h prior to radiolabeled ligand. Blots were washed in TSN buffer containing 0.05% Tween80 and bound radioactivity was quantified on a Molecular Dynamics PhosphorImager™.
Purification of the alpha-Subunit of ATP Synthase. Competent E. coli BL21DE3 were transformed with the pET24a(+) vector containing the alpha subunit, plated on 2× Bacto-yeast tryptone (YT) agarose, and grown overnight at 37° C. Twenty milliliters of 2× YT containing […] kanamycin was inoculated with one colony and grown overnight at 37° C. (200 rpm). A 1-liter culture (2× YT, […] kanamycin) was inoculated with 20 ml of the noninduced overnight culture and grown at 37° C. to an OD of 0.6 at a wavelength of 600 nm. Isopropyl […] was added to a final concentration of 1 mM and grown for an additional 3 h. Cells were harvested by centrifugation at 8,000 rpm for 10 min and stored overnight at −20° C. Lysates were prepared under denaturing conditions and batch-purified by using Qiagen Ni-NTA agarose. Resulting protein was dialyzed against PBS, pH 7.0 for use in all experiments.

- pKd [2]: 7.92
- binding of 125I-labeled ligand to recombinant alpha subunit [5]: bound
Substance: angiostatin
- pKd (HUVEC [1]): 6.61
- Percent Inhibition (+/− S.E.M.) of HUVEC proliferation (HUVEC [3]): 57.2 +/− 1.16%
- inhibition of 125I-labeled plasminogen binding [4]: unaffected; also recorded: no inhibition; also recorded: not inhibited
